# Test results: US20230271950A1, “ANTIBACTERIAL PICOLINAMIDE COMPOUNDS” (University of Notre Dame Du Lac, priority 2020, published 2023)
# Like-named read-outs stand apart in the source and are kept apart here.
# Legend:
# C. difficile = assay: MIC by broth microdilution against C. difficile strains; assay type: cell-based, Clostridioides difficile; conditions: for MIC: read-out: MIC
# Fusobacterium nucleatum = assay: MIC against gut bacterium Fusobacterium nucleatum; assay type: cell-based; conditions: Fusobacterium nucleatum, Fusobacterium nucleatum strain HM-992, read-out: MIC
# [1] = tested on: Fecal microbiota preparation; assay: MIC against fecal microbiota preparation; assay type: cell-based; conditions: Fecal microbiota preparation from OpenBiome tested at 1000-fold dilution
# Protocol: Minimum inhibitory concentrations (MIC). MICs for C. difficile strains and the common gut bacteria were determined using broth microdilution techniques as reported earlier using brucella broth supplemented with hemin and vitamin K or supplemented BHIS broth. Lactobacillus MRS broth was used for lactobacillus strains. Sodium lactate was supplemented in the media for Veillonella sp. […] All incubations, unless specified otherwise, were carried out at 24 h or 48 h at 37° C. in an anaerobic chamber (Whitley DG250 workstation, Microbiology International, Frederick, Md.). Corynebacterium and Lactobacillus species were incubated aerobically.
# Veillonella sp. HM-49 = assay: MIC against gut bacterium Veillonella sp.; assay type: cell-based
# Bifidobacterium longum = assay: MIC against gut bacterium Bifidobacterium longum; assay type: cell-based; conditions: Bifidobacterium longum, Bifidobacterium longum strain HM-846, read-out: MIC
compound,measurement,setting,value
"CCc1c(Cl)c(O)c(Cl)c(O)c1C(=O)O[C@H]1[C@H](O)[C@H](OC)[C@H](OC/C2=C\C=C\C[C@H](O)/C(C)=C/[C@H](CC)[C@@H](O[C@@H]3OC(C)(C)[C@@H](OC(=O)C(C)C)[C@H](O)[C@@H]3O)/C(C)=C/C(C)=C/C[C@@H]([C@@H](C)O)OC2=O)O[C@@H]1C [FDX, fidaxomicin, reference compound]",MIC,"C. difficile; Clostridioides difficile, C. difficile NR49302, Table 7",0.03 µg/mL
same,MIC,"C. difficile; Clostridioides difficile, C. difficile NR49302, Table 9",0.03 µg/mL
same,MIC,"C. difficile; Clostridioides difficile, C. difficile NR49305, Table 7",0.01 µg/mL
same,MIC,"C. difficile; Clostridioides difficile, C. difficile NR49305, Table 9",0.01 µg/mL
same,MIC,"C. difficile; Clostridioides difficile, C. difficile NR49310, Table 7",≤ 0.01 µg/mL
same,MIC,"C. difficile; Clostridioides difficile, C. difficile NR49310, Table 9",≤ 0.01 µg/mL
same,MIC,"C. difficile; Clostridioides difficile, C. difficile NR-13427, Table 9",0.03 µg/mL
same,MIC,"C. difficile; Clostridioides difficile, C. difficile NR-13428, Table 9",≤ 0.03 µg/mL
same,MIC,"C. difficile; Clostridioides difficile, C. difficile NR-13429, Table 9",0.25 µg/mL
same,MIC,"C. difficile; Clostridioides difficile, C. difficile NR-13430, Table 9",≤ 0.03 µg/mL
same,MIC,"C. difficile; Clostridioides difficile, C. difficile NR-13434, Table 9",0.06 µg/mL
same,MIC,"C. difficile; Clostridioides difficile, C. difficile NR-13435, Table 9",≤ 0.03 µg/mL
same,MIC,"C. difficile; Clostridioides difficile, C. difficile NR-13437, Table 9",0.25 µg/mL
same,MIC,"C. difficile; Clostridioides difficile, C. difficile NR-13438, Table 9",0.06 µg/mL
same,MIC,"C. difficile; Clostridioides difficile, C. difficile NR-13553, Table 9",≤ 0.03 µg/mL
same,MIC,"C. difficile; Clostridioides difficile, C. difficile NR-32882, Table 9",0.06 µg/mL
same,MIC,"C. difficile; Clostridioides difficile, C. difficile NR-32884, Table 9",0.03 µg/mL
same,MIC,"C. difficile; Clostridioides difficile, C. difficile NR-32885, Table 9",0.25 µg/mL
same,MIC,"C. difficile; Clostridioides difficile, C. difficile NR-32886, Table 9",0.03 µg/mL
same,MIC,"C. difficile; Clostridioides difficile, C. difficile NR-32888, Table 9",0.03 µg/mL
same,MIC,"C. difficile; Clostridioides difficile, C. difficile NR-32889, Table 9",0.25 µg/mL
same,MIC,"C. difficile; Clostridioides difficile, C. difficile NR-32890, Table 9",0.06 µg/mL
same,MIC,"C. difficile; Clostridioides difficile, C. difficile NR-32891, Table 9",0.03 µg/mL
same,MIC,"C. difficile; Clostridioides difficile, C. difficile NR-32892, Table 9",0.03 µg/mL
same,MIC,"C. difficile; Clostridioides difficile, C. difficile NR-32895, Table 9",0.03 µg/mL
same,MIC,"C. difficile; Clostridioides difficile, C. difficile NR-32896, Table 9",0.03 µg/mL
same,MIC,"C. difficile; Clostridioides difficile, C. difficile NR-32897, Table 9",0.03 µg/mL
same,MIC,"C. difficile; Clostridioides difficile, C. difficile NR-32900, Table 9",0.03 µg/mL
same,MIC,"C. difficile; Clostridioides difficile, C. difficile NR-32903, Table 9",0.03 µg/mL
same,MIC,"C. difficile; Clostridioides difficile, C. difficile NR-32904, Table 9",0.03 µg/mL
same,MIC,"C. difficile; Clostridioides difficile, C. difficile NR-49277, Table 9",0.06 µg/mL
same,MIC,"C. difficile; Clostridioides difficile, C. difficile NR-49278, Table 9",0.25 µg/mL
same,MIC,"C. difficile; Clostridioides difficile, C. difficile NR-49279, Table 9",0.25 µg/mL
same,MIC,"C. difficile; Clostridioides difficile, C. difficile NR-49281, Table 9",0.25 µg/mL
same,MIC,"C. difficile; Clostridioides difficile, C. difficile NR-49282, Table 9",0.06 µg/mL
same,MIC,"C. difficile; Clostridioides difficile, C. difficile NR-49283, Table 9",0.03 µg/mL
same,MIC,"C. difficile; Clostridioides difficile, C. difficile NR-49284, Table 9",0.06 µg/mL
same,MIC,"C. difficile; Clostridioides difficile, C. difficile NR-49285, Table 9",0.06 µg/mL
same,MIC,"C. difficile; Clostridioides difficile, C. difficile NR-49286, Table 9",0.25 µg/mL
same,MIC,"C. difficile; Clostridioides difficile, C. difficile NR-49287, Table 9",0.25 µg/mL
same,MIC,"C. difficile; Clostridioides difficile, C. difficile NR-49288, Table 9",0.25 µg/mL
same,MIC,"C. difficile; Clostridioides difficile, C. difficile NR-49289, Table 9",0.03 µg/mL
same,MIC,"C. difficile; Clostridioides difficile, C. difficile NR-49290, Table 9",0.06 µg/mL
same,MIC,"C. difficile; Clostridioides difficile, C. difficile NR-49291, Table 9",0.25 µg/mL
same,MIC,"C. difficile; Clostridioides difficile, C. difficile NR-49293, Table 9",≤ 0.03 µg/mL
same,MIC,"C. difficile; Clostridioides difficile, C. difficile NR-49295, Table 9",≤ 0.03 µg/mL
same,MIC,"C. difficile; Clostridioides difficile, C. difficile NR-49296, Table 9",≤ 0.03 µg/mL
same,MIC,"C. difficile; Clostridioides difficile, C. difficile NR-49297, Table 9",0.0125 µg/mL
same,MIC,"C. difficile; Clostridioides difficile, C. difficile NR-49300, Table 9",0.03 µg/mL
same,MIC,"C. difficile; Clostridioides difficile, C. difficile NR-49301, Table 9",0.03 µg/mL
same,MIC,"C. difficile; Clostridioides difficile, C. difficile NR-49303, Table 9",0.03 µg/mL
same,MIC,"C. difficile; Clostridioides difficile, C. difficile NR-49304, Table 9",0.06 µg/mL
same,MIC,"C. difficile; Clostridioides difficile, C. difficile NR-49306, Table 9",0.03 µg/mL
same,MIC,"C. difficile; Clostridioides difficile, C. difficile NR-49307, Table 9",0.03 µg/mL
same,MIC,"C. difficile; Clostridioides difficile, C. difficile NR-49309, Table 9",0.03 µg/mL
same,MIC,"C. difficile; Clostridioides difficile, C. difficile NR-49311, Table 9",0.03 µg/mL
same,MIC,"C. difficile; Clostridioides difficile, C. difficile NR-49313, Table 9",0.03 µg/mL
same,MIC,"C. difficile; Clostridioides difficile, C. difficile NR-49314, Table 9",0.25 µg/mL
same,MIC,"C. difficile; Clostridioides difficile, C. difficile NR-49315, Table 9",0.06 µg/mL
same,MIC,"C. difficile; Clostridioides difficile, C. difficile NR-49317, Table 9",0.06 µg/mL
same,MIC,"C. difficile; Clostridioides difficile, C. difficile NR-49323, Table 9",≤ 0.03 µg/mL
same,MIC,"C. difficile; Clostridioides difficile, C. difficile NR-49324, Table 9",0.06 µg/mL
same,MIC,"C. difficile; Clostridioides difficile, C. difficile NR-49325, Table 9",0.03 µg/mL
same,MIC,"C. difficile; Clostridioides difficile, C. difficile NR-49326, Table 9",0.03 µg/mL
same,MIC,"C. difficile; Clostridioides difficile, C. difficile NR-49327, Table 9",0.03 µg/mL
same,MIC,"C. difficile; Clostridioides difficile, C. difficile NR-49328, Table 9",0.03 µg/mL
same,MIC,"C. difficile; Clostridioides difficile, C. difficile NR-49329, Table 9",0.03 µg/mL
same,MIC50,"C. difficile; Clostridioides difficile, 101 C. difficile strains",0.06 µg/mL
same,MIC90,"C. difficile; Clostridioides difficile, 101 C. difficile strains, read-out: MIC90 (101 strains)",0.25 µg/mL
same,Selectivity,"C. difficile; MIC MRSA NRS70/MIC C. difficile ATCC43255, Table 7",128
same,MIC,Fusobacterium nucleatum; Table 1,< 0.06 µg/mL
same,MIC,Fusobacterium nucleatum; Table 7,< 0.0625 µg/mL
same,MIC,[1],> 128 µg/mL
same,MIC,"Veillonella sp. HM-49; SP.HM49, Veillonella sp. HM-49, Table 1, read-out: MIC",8 µg/mL
same,MIC,"Veillonella sp. HM-49; Veillonella sp. strain HM-49, Table 7",8 µg/mL
same,MIC,Bifidobacterium longum; Table 1,< 0.01 µg/mL
same,MIC,Bifidobacterium longum; Table 7,< 0.01 µg/mL
